One test has as its target T1, 5-lipoxygenase (5-LO) (Homo sapiens, UniProt P09917).
T1 sequence (P09917 1-674): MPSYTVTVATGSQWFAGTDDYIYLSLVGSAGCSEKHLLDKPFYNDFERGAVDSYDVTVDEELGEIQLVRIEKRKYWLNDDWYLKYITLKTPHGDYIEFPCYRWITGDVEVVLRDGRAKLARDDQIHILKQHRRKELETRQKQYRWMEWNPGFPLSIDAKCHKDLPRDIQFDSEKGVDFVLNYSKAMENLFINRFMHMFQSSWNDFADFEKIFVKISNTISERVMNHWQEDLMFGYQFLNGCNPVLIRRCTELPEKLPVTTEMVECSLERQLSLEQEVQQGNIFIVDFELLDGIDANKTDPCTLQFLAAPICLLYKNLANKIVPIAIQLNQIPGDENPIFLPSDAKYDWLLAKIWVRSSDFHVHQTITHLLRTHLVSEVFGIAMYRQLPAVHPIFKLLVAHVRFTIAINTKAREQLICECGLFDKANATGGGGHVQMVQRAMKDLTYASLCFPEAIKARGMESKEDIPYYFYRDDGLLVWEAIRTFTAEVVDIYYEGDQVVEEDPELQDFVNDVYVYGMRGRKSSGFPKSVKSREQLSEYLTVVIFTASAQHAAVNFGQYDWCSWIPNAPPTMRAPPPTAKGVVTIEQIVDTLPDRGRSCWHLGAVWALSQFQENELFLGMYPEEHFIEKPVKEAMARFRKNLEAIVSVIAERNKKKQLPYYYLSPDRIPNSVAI
In words: 5-LO inhibition assay, Method A (Cerep), cell-free functional. It is filed as biochemical. The note with it: 150 μM; read-out: 5-LO inhibition at the assayed concentration. How it is done: Method A: 5-Lipoxygenase (5-LO), 12-lipoxygenase (12-LO) and 15-lipoxygenase-2 (15-LO-2) inhibition assays were performed at Cerep, SA (Celle l'Evescault, France) on a fee-for-service basis (Ref 0772^36, 0883^37 and 0893^38, respectively), as described in Table 1.

Another test deals with T2, EP3 (Homo sapiens, UniProt P43115).
T2 sequence (P43115 1-390): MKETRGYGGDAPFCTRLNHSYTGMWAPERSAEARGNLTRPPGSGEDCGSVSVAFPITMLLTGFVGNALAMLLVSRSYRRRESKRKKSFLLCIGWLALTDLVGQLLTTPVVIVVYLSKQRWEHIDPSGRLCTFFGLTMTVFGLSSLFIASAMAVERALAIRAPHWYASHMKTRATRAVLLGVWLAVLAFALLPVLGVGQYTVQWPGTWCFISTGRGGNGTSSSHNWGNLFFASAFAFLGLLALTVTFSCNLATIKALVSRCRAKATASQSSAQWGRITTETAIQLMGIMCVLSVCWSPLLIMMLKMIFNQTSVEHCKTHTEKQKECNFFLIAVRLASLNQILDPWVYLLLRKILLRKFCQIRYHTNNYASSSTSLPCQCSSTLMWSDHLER
The test is described as follows: Prostanoid EP3 receptor antagonism, functional assay. It is filed as cell-based. The note with it: 150 μM.

Another test deals with EP4 (Homo sapiens, UniProt P35408). In words: Prostanoid EP4 receptor antagonism, functional assay. It is filed as cell-based. The settings on record: 150 μM.
For the next test, the target named is TRPV1 (Homo sapiens, UniProt Q8NER1). The test is described as follows: TRPV1 channel antagonism, functional assay. It is filed as cell-based. The settings on record: 150 μM.
The target of another test is TRPM8 (Homo sapiens, UniProt Q7Z2W7). In words: TRPM8 channel antagonism, functional assay. It is filed as cell-based. The note with it: 150 μM.
The next test deals with T3, 5-LO (Homo sapiens, UniProt P09917).
T3 sequence (P09917 1-674): T1 sequence (P09917 1-674)
The test is described as follows: 5-LO activity in neutrophil homogenates. Also noted: endogenous in cells; host or cells: neutrophils isolated from peripheral blood of healthy adult volunteers; intact or sonicated homogenates. The settings on record: neutrophil homogenates, with or without 1 mM DTT. It is filed as biochemical. How it is done: Peripheral blood (University Hospital Jena, Germany) was withdrawn from healthy adult volunteers with consent that had not taken any anti-inflammatory drugs during the last 10 days, by venipuncture in heparinized tubes (16 IE heparin/mL blood). The blood was centrifuged at 4000 g for 20 min at 20° C. for preparation of leukocyte concentrates. Leukocyte concentrates were then subjected to dextran sedimentation and centrifugation on lymphocyte separation medium (LSM 1077, PAA, Colbe, Germany). Contaminating erythrocytes of pelleted neutrophils were removed by hypotonic Iysis. Neutrophils were then washed twice in ice-cold PBS and finally resuspended in PBS pH 7.4 containing 1 mg/mL glucose or in PBS pH 7.4 containing 1 mg/mL glucose plus 1 mM CaCl2 (PGC buffer) (purity>96-97%).
For analysis of 5-LO product formation in corresponding homogenates, neutrophils were resuspended in PBS containing 1 mM EDTA for 5 min at 4° C. and sonicated (4×10 s, 4° C.). Homogenates, corresponding to 5×10^6 cells/mL, were incubated with the test compounds or vehicle (0.1% DMSO) with or without 1 mM DTT for 15 min at 4° C., pre-warmed for 30 s at 37° C., and the reaction was started by the addition of 2 mM CaCl2 plus the indicated concentrations of AA (routinely 20 μM). The reaction was stopped after 10 min and the samples were analyzed as described for intact cells above.
Data are expressed as mean±S.E.M. IC50 values were calculated from averaged measurements at 6 different concentrations of the compound by nonlinear regression using GraphPad Prism software (San Diego, Calif.) one site binding competition. Statistical evaluation of the data was performed by one-way ANOVA followed by a Tukey-Kramer post-hoc test for multiple comparisons respectively. A p value<0.05 (*) was considered significant.

TRPM8, sequence (Q7Z2W7 whole entry, species assumed): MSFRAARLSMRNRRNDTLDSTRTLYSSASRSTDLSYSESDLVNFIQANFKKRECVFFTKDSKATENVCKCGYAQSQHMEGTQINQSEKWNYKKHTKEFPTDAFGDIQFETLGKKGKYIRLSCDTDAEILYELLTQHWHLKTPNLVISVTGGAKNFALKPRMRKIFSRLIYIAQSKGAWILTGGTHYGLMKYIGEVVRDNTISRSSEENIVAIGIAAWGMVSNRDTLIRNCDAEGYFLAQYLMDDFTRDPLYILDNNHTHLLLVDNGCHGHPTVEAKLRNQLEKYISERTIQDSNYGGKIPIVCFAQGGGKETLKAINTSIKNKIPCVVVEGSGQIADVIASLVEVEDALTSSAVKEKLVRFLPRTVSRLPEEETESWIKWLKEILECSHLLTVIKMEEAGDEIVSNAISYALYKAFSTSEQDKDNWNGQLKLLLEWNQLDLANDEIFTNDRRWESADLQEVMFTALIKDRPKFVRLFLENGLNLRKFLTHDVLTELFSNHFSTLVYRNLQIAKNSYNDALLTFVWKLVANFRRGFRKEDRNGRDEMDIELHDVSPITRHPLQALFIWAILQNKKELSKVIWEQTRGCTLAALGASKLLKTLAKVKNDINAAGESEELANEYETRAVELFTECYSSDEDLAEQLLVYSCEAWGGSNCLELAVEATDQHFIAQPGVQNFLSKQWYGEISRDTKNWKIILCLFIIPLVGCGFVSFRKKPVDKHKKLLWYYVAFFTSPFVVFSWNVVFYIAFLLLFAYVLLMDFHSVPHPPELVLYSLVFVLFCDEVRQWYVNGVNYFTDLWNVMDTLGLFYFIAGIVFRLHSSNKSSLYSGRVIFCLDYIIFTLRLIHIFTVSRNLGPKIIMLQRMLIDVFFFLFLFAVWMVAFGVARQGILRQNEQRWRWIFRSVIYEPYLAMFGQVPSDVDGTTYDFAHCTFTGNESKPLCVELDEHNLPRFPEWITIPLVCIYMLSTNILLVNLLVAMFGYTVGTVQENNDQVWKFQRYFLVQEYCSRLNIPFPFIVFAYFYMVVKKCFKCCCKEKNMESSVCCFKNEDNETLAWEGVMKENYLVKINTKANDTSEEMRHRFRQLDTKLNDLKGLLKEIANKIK
EP4, sequence (P35408 whole entry): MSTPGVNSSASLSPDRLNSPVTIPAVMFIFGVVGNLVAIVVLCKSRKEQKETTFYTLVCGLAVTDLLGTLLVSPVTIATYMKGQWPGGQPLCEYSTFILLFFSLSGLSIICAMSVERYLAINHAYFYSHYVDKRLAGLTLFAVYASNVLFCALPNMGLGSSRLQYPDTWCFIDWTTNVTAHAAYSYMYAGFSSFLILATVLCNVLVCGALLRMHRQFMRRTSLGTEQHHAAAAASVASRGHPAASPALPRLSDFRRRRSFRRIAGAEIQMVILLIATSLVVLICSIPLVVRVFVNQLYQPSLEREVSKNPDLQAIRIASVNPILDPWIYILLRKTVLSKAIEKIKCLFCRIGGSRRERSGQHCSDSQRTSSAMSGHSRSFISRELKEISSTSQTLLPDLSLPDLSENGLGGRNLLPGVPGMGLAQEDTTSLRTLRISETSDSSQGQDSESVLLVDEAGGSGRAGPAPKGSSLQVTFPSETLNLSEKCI
TRPV1, sequence (Q8NER1 whole entry, species assumed): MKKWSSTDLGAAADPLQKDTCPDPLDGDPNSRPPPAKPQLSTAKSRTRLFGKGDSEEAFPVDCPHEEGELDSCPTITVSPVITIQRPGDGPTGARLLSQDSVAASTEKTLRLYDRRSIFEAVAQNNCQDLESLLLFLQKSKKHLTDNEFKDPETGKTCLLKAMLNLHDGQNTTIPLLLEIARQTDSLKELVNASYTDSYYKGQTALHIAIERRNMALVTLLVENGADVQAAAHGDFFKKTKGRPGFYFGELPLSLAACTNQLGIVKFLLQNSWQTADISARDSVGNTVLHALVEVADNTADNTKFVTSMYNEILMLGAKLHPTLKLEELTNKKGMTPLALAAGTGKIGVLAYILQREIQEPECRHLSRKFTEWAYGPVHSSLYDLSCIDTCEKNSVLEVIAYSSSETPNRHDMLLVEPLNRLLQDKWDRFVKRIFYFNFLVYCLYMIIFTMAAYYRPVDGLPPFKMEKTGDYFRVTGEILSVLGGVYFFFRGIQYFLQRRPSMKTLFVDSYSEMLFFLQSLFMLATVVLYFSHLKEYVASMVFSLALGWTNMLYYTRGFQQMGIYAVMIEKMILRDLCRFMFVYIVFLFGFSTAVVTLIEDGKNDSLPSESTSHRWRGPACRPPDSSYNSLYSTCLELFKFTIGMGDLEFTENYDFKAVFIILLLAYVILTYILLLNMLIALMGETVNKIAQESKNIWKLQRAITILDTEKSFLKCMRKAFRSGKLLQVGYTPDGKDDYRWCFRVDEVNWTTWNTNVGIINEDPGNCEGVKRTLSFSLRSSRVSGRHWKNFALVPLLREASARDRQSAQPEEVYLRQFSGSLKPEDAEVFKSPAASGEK

Take `CC(C)=CCC1=C(O)C(=O)c2ccccc2C1=O` [Compound 2, 2-hydroxy-3-(3′-methyl-2′-butenyl)-1,4-naphthoquinone]: the inhibition at 150 µM on 5-lipoxygenase (5-LO) is 87%. On EP3, this compound returned an EP3 antagonist effect of 50%. Also, the EP4 antagonist effect at EP4 is 56%. On TRPV1, this compound registered a TRPV1 antagonist effect of 65%. At TRPM8, this compound returned a TRPM8 antagonist effect of 91%.

`CC(c1cc2ccccc2s1)N(O)C(N)=O` (stereo not drawn) [zileuton, reference compound]: the “Dependence of inhibition on DTT” value at 5-LO was “independent of DTT”.

The values above are taken from patent publication US20210161855A1, “5-LIPOXYGENASE ANTAGONISTS” (INSTITUTO DE MEDICINA MOLECULAR JOÃO LOBO ANTUNES, priority 2017, published 2021).
